Patent US20180117644A1, “METHOD FOR WASHING SEVOFLURANE STORAGE CONTAINER AND METHOD FOR STORING SEVOFLURANE” (CENTRAL GLASS COMPANY, LIMITED, priority 2016, published 2018)
Like-named read-outs stand apart in the source and are kept apart here.

How the values were obtained:
[1] = cited from earlier work
[2] = Moisture content of liquid sevoflurane stored with dry nitrogen in autoclave (Karl Fischer); format: physicochemical
Procedure: A 1-dm^3 autoclave (SUS304) used as a sevoflurane storage container was filled with dry nitrogen. Liquid sevoflurane (i.e., a sevoflurane product containing 400 ppm of water) (30 g) was added thereto. The autoclave was hermetically closed and stored at room temperature for 1 month. Then, moisture content was measured using a Karl Fischer moisture meter. […] The liquid sevoflurane was stored for another month in the autoclave in the same manner. Then, the moisture content was measured again.

[3] = Degradation of sevoflurane (severe testing) with alumina, gas chromatographic composition; format: physicochemical; settings: sevoflurane with moisture 6 ppm, alumina 50 mg, 50° C., 64 hours, after third water washing
Procedure: In Example 1, sevoflurane was treated under conditions more stringent than actual sevoflurane storage conditions so that “polyether” was forcibly generated. Specifically, according to the disclosure of Patent Literature 5, the water content of sevoflurane was adjusted to be lower than that of sevoflurane obtained as a final product (6 ppm). Further, sevoflurane was heated to 50° C. under the presence of oxidized aluminium (alumina) serving as Lewis acid (i.e., a substance that is considered to catalyze sevoflurane degradation in Patent Literature 5). As a result, a portion of sevoflurane was degraded into polyether, resulting in generation of “sevoflurane containing polyether” in the system. It was attempted to wash the obtained “sevoflurane containing polyether” with water.
Sevoflurane (used as a pharmaceutical product) (100 cm^3) was placed in a erlenmeyer flask and cooled to 10° C. in a refrigerator. Then, synthetic zeolite was introduced into the erlenmeyer flask so that the weight ratio of synthetic zeolite:sevoflurane became 1:4. Next, the erlenmeyer flask was allowed to stand still in a refrigerator at 10° C. for 2 hours and 30 minutes for drying of sevoflurane (reduction of water content).
Alumina (50 mg) was placed in a 50-cm^3 brown bottle with a narrow mouth. Sevoflurane having a moisture content of 6 ppm prepared in (1-1) (20 cm^3, 29.9 g) was added thereto.
Next, the cap of the brown bottle with a narrow mouth was closed and the bottle was heated in a thermostatic bath at 50° C. for 64 hours. After heating for 64 hours, the bottle was cooled in a refrigerator (10° C.) for 1 hour.
As the sevoflurane obtained as a result of severe testing in (1-2) contained hydrogen fluoride (HF), water washing (back extraction of HF into an aqueous phase) was conducted for the ease of handling. Specifically, the sevoflurane subjected to severe testing and water (15 cm^3) were introduced into a separatory funnel made of tetrafluoroethylene, stirred for 1 minute, and allowed to stand still for 1 minute, followed by liquid separation. Then, the aqueous phase was collected and pH was checked using a pH test paper.
Meanwhile, after the third water washing, the gas chromatographic composition of the organic phase was detected as follows: sevoflurane: about 87%; polyether 1: 8.4% (84000 ppm); and polyether 2: 4.0% (40000 ppm). In addition, 190 ppm of hexafluoroisopropyl alcohol (HFIP) was detected.

[4] = as disclosed in Patent Literature 5; cited from earlier work

FCOC(C(F)(F)F)C(F)(F)F [sevoflurane, Fluoromethyl-1,1,1,3,3,3-hexafluoroisopropyl ether]
vapor pressure ([1]; 25° C.): about 0.026 MPa | vapor pressure ([1]; 35° C.): about 0.041 MPa | vapor pressure ([1]; 45° C.): about 0.061 MPa | moisture content ([2]; product containing 400 ppm of water, 30 g in 1-dm^3 autoclave (SUS304) filled with dry nitrogen, room temperature, 1 month): 360 ppm | moisture content ([2]; same storage, another month (2 months in total)): 350 ppm | gas chromatographic composition of the organic phase: polyether 1 [3]: 8.4% | gas chromatographic composition of the organic phase: polyether 2 [3]: 4.0% | gas chromatographic composition of the organic phase: sevoflurane [3]: about 87% | hexafluoroisopropyl alcohol (HFIP) detected in the organic phase [3]: 190 ppm | upper limit of the amount of water that can be mixed with sevoflurane [4]: about 1400 ppm
